Test results from paper PMC10354055, “An optimized Nurr1 agonist provides disease-modifying effects in Parkinson’s disease models” (Nature Communications, 2023).
pEC50: −log10 of the molar value. “And” between values parts separate entries of the source, which are not always exact repeats. Equal entries are not always repeated. Where two headings read alike, the source gives them in different places.

What was measured:
Nurr1-LBD = target: T1, Nurr1-LBD (Mus musculus, UniProt Q06219); assay: Luciferase reporter assay, Nurr1-LBD, N27-A cells; type: cell-based; details: for pEC50: Supplementary Fig. 1d,e
T1 construct: transfected with pCMV-fNurr1, pGAL-Nurr1(LBD), pGAL-Nor1(LBD) or pGAL-Nur77(LBD) and reporter construct; expressed in transfected cells; host or cells: SK-N-BE(2)C (human neuroblastoma), N27-A (rat dopaminergic), MN9D (murine dopaminergic)
T1 sequence (Q06219 360-595 limits assumed): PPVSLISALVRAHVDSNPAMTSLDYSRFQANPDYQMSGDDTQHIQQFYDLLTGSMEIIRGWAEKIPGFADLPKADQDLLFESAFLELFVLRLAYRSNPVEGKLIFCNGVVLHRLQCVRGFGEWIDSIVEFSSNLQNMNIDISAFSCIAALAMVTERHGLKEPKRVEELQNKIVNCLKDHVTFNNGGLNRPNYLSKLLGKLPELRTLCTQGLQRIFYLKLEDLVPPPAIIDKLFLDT
Source text: Nurr1 transactivity was normalized to β-galactosidase activity.

N27-A cells [1] = details: for LDH release (%): Fig. 2b, MPP+, CQ 100 µM, 4A7C-301 1 µM; for MPP+-induced cytotoxicity (in words): N27-A and MN9D cells, dose-dependent
Protocol: (§1) SK-N-BE(2)C human neuroblastoma, BV2 mouse microglia (ATCC), HeLa and MN9D cell lines were cultured in Dulbecco’s Modified Eagle Medium (DMEM) supplemented with 10% fetal bovine serum (FBS) and 100 U /ml penicillin and 100 μg /ml streptomycin. The murine MN9D dopaminergic cell line was kindly provided by Drs. Michael Zigmond and Juliann Jaumotte from the University of Pittsburgh. The N27-A rat dopaminergic cell line was kindly provided by Dr. Curt Freed from the University of Colorado School of Medicine. […] For transactivity assay, SK-N-BE(2)C and N27-A cell lines were transfected with pCMV-fNurr1, pGAL-Nurr1(LBD), pGAL-Nor1(LBD) or pGAL-Nur77(LBD) and reporter construct (p4xNL3-Luc for fNurr1 or p8xUAS-Luc for LBD constructs). pRSV-β-gal was co-transfected as an internal control. Cells were lysed in a lysis buffer (25 mM Tris-phosphate (pH 7.8), 2 mM DTT, 2 mM DCTA (1,2-diaminocyclohexane-N,N,N′,N′-tetraacetic acid), 10% glycerol, and 1% Triton X-100) 24 h after transfection, followed by adding firefly luciferase substrate for luminescence detection measured by a luminometer plate reader (SpectraMax®; Molecular device). Nurr1 transactivity was normalized to β-galactosidase activity. […] For Nurr1 stability determination, MN9D cells were incubated with MPP^+ (0.5 mM) for 2, 4, 8, 16, 24, and 32 h, or were transduced with lentivirus expressing GFP only or αSyn (wild-type or A53T) then harvested 24, 48 and 72 h after transduction. For autophagolysosome (APL) formation assay, HeLa and N27-A cells were transfected with mRFP-GFP-LC3 (Addgene) using Lipofectamine 2000 (Invitrogen). The medium was changed with starvation medium (Earle’s Balanced Salt Solution; EBSS) 24 h after transfection for autophagy induction.
Cells were transfected with Nurr1 subcloned into pcDNA3.1 vector[23] for Nurr1 overexpression (OE). […] Nurr1 OE or KD by transfection was analyzed by Western blot.
Cellular oxidative stress was detected using the DCFDA Cellular ROS Assay Kit (Abcam) according to the manufacturer’s protocol. Briefly, cells seeded in black clear bottom 96 well plate were stained with DCFDA solution (20 µM) for 45 min at 37 °C. […] Cytotoxicity was determined by measuring lactate dehydrogenase (LDH) release into the culture medium using a LDH cytotoxicity detection kit (Roche)[33]. Absorbance was measured at 490 nm with a microplate reader and cytotoxicity was calculated as a percentage (%) relative to 1% TritonX-100 control. Cell viability was determined using 3-(4,5-dimethylthiazol-2-yl)-2,5-diphenyltetrazolium bromide (MTT) as previously described. Briefly, cells were incubated with 5 mg/ml of MTT (Sigma-Aldrich) solution for 3.5 h at 37 °C. MTT formazan crystals were dissolved in 10 times the volume of MTT solvent (4 mM HCl and 0.1% Nonidet P-40 in isopropanol) and the absorbance from the generated blue formazan was measured at 570 nm after 15 min incubation at room temperature. Cell viability was calculated as a percentage (%) of MTT reduction relative to vehicle control.

N27-A cells [2] = assay: Cellular oxidative stress, DCFDA ROS assay, N27-A cells; type: cell-based, rat; details: for MPP+-induced ROS levels (in words): CQ 100 µM, 4A7C-301 1 µM; for ROS intensity (fold of control): Fig. S1i, with MPP+, replicates
TNFα gene = assay: LPS-induced TNFα gene expression in BV2 cells, qRT-PCR; type: cell-based, mouse; details: for pEC50: Mus musculus, BV-2; for Relative TNFα expression (% of control): Fig. S6, LPS
Protocol: as §1
Total RNA was extracted using the GeneJET RNA Purification Kit (Thermo Fisher Scientific) and 100 ng of RNA was subjected to cDNA synthesis using Invitrogen Superscript cDNA Synthesis Kit (Invitrogen) according to the manufacturer’s protocol. qRT-PCR was performed using a CFX Connect Real-Time System (Bio-Rad) in a 20 μl volume mixture containing 2X SsoAdvanced Universal SYBR Green Supermix (Bio-Rad), 100 ng/μl of forward and reverse primers, and 1 μl of cDNA sample. Gene expression levels were quantified by the 2^∆∆CT method (Ct of target gene—Ct of glyceraldehyde-3-phosphate dehydrogenase (GAPDH). The following primers were used for qRT-PCR: TH forward: 5′-[…]-3′, reverse: 5′-[…]-3′; DAT forward: 5′-[…]-3′, reverse: 5′-[…]-3′; AADC forward: 5′-[…]-3′, reverse: 5′-[…]-3′; VMAT2 forward: 5′-[…]-3′, reverse: 5′-[…]-3′; c-Ret forward: 5′-[…]-3′, reverse: 5′-[…]-3′; TNFα forward: 5′-[…]-3′; reverse: 5′-[…]-3′; GAPDH, forward 5′-[…]-3′, reverse 5′-[…]-3′.

N27-A cells [3] = assay: Autophagolysosome (APL) formation assay, mRFP-GFP-LC3, N27-A cells; type: cell-based, rat; details: for LC3 dots/cell, Red LC3 dots / LC3 dots/cell, Yellow LC3 dots: Figure 3b, mRFP-GFP-LC3, individual cells (30 per treatment)
Protocol: HeLa and N27-A cells were transfected with tandem mRFP-GFP-LC3 (Addgene) plasmid using Lipofectamine 2000 (Invitrogen) in 24-well plates. After 24 h, cells were incubated in starvation medium (Earle’s Balanced Salt Solution, EBSS; Lonza) containing bafilomycin A1 (BafA1, 10 nM), CQ (20 µM), or 4A7C-301 (1 µM) for 6 h and then fixed with 4% formaldehyde for fluorescence detection. Images were taken using a KEYENCE microscope and red (mRFP) LC3 dots and yellow (mRFP+GFP) LC3 dots were counted from three independent wells for each treatment group. 10 cells were randomly selected and counted from each well and a total of 30 cells were analyzed for each treatment group in both HeLa and N27-A cells.

## CCN(CC)CCCC(C)Nc1ccnc2cc(Cl)ccc12 (centres unmarked) [CQ, chloroquine]
Nurr1-LBD
  pEC50: ~5.00
N27-A cells [1]; Control
  LDH release (%): 38.0191% and 38.0584% and 38.4906% and 38.2156%
N27-A cells [1]; Nurr1 KD
  LDH release (%): 55.7041% and 55.6609% and 55.7395% and 55.7788%
N27-A cells [1]; Nurr1 OE
  LDH release (%): 24% and 23.9568% and 23.9529% and 23.9254%
N27-A cells [1]
  MPP+-induced cytotoxicity (in words): significantly decreased
N27-A cells [2]
  MPP+-induced ROS levels (in words): significantly reduced
TNFα gene
  pEC50: ~7.00
N27-A cells [3]
  LC3 dots/cell, Red LC3 dots: 6 dots/cell (4×) and 7 dots/cell (5×) and 11 dots/cell (6×) and 10 dots/cell (2×) and 5 dots/cell (3×) and 15 dots/cell (2×) and 4 dots/cell (2×) and 8 dots/cell (2×) and 13 dots/cell and 17 dots/cell and 9 dots/cell and 2 dots/cell
  LC3 dots/cell, Yellow LC3 dots: 25 dots/cell (2×) and 30 dots/cell (6×) and 28 dots/cell (3×) and 20 dots/cell and 17 dots/cell (3×) and 21 dots/cell (4×) and 19 dots/cell and 22 dots/cell (2×) and 23 dots/cell (2×) and 18 dots/cell (2×) and 16 dots/cell and 29 dots/cell (2×) and 31 dots/cell
N27-A cells [3]; N27-A, EBSS, CQ 20 µM, 4A7C-301 1 µM
  autophagy process (in words): inhibits

## CCN1CCN(c2cc(N3CCN(CC)CC3)nc(NCCNc3ccnc4cc(Cl)ccc34)n2)CC1 [4A7C-301, N^1-(4,6-bis(4-ethylpiperazin-1-yl)pyrimidin-2-yl)-N^2-(7-chloroquinolin-4-yl)ethane-1,2-diamine]
Nurr1-LBD
  potency relative to CQ: approximately 50 times
  pEC50: ~6.70
N27-A cells [1]; Control
  LDH release (%): 36.8915% and 36.4082% and 36.6047% and 36.8443%
N27-A cells [1]; Nurr1 KD
  LDH release (%): 55.7866% and 55.7395% and 55.4251% and 55.8102%
N27-A cells [1]; Nurr1 OE
  LDH release (%): 22.7388% and 23.725% and 22.6956% and 22.8802%
N27-A cells [1]
  MPP+-induced cytotoxicity (in words): significantly decreased
N27-A cells [1]; N27-A cells, MPP+-induced cytotoxicity
  concentration of maximal efficiency, times lower than CQ: ~ 20 times
N27-A cells [2]
  MPP+-induced ROS levels (in words): significantly reduced
N27-A cells [2]; Control cells
  ROS intensity (fold of control): 1.457 fold of control and 1.389 fold of control and 1.394 fold of control
N27-A cells [2]; Nurr1 KD cells
  ROS intensity (fold of control): 2.059 fold of control and 2.042 fold of control and 2.017 fold of control
N27-A cells [2]; Nurr1 OE cells
  ROS intensity (fold of control): 0.87 fold of control and 0.894 fold of control and 0.877 fold of control
TNFα gene; Conc. 0.0001 µM
  Relative TNFα expression (% of control): 72.3049 % of control and 70.453 % of control and 74.7916 % of control
TNFα gene; Conc. 0.001 µM
  Relative TNFα expression (% of control): 45.7586 % of control and 44.0429 % of control and 42.816 % of control
TNFα gene; Conc. 0.01 µM
  Relative TNFα expression (% of control): 26.6218 % of control and 26.6304 % of control and 26.1645 % of control
TNFα gene; Conc. 0.1 µM
  Relative TNFα expression (% of control): 25.1791 % of control and 23.3247 % of control and 22.8855 % of control
TNFα gene; Conc. 1 µM
  Relative TNFα expression (% of control): 21.147 % of control and 21.3464 % of control and 19.5073 % of control
TNFα gene; suppression of LPS-induced TNFα gene, BV2 cells, read-out: EC50
  pEC50: ~9.00
N27-A cells [3]
  LC3 dots/cell, Red LC3 dots: 22 dots/cell (5×) and 32 dots/cell and 15 dots/cell and 27 dots/cell (6×) and 21 dots/cell (4×) and 26 dots/cell (2×) and 34 dots/cell and 31 dots/cell (2×) and 19 dots/cell (3×) and 12 dots/cell and 17 dots/cell (2×) and 16 dots/cell and 20 dots/cell
  LC3 dots/cell, Yellow LC3 dots: 9 dots/cell (2×) and 10 dots/cell (3×) and 16 dots/cell (2×) and 11 dots/cell (4×) and 20 dots/cell (2×) and 3 dots/cell (2×) and 4 dots/cell (2×) and 5 dots/cell (3×) and 15 dots/cell and 17 dots/cell and 14 dots/cell (3×) and 6 dots/cell (2×) and 7 dots/cell and 2 dots/cell and 12 dots/cell
